This note sets out measurements from patent US20050261332A1, “Sulfonamides and uses thereof” (priority 2004, published 2005).

SMILES strings stand for the structures.

The experiment deals with T1, GHS-R (Homo sapiens, UniProt Q92847).
T1 construct: expressed in transfected cells; host or cells: COS-7 cells
T1 sequence (Q92847 whole entry, species assumed): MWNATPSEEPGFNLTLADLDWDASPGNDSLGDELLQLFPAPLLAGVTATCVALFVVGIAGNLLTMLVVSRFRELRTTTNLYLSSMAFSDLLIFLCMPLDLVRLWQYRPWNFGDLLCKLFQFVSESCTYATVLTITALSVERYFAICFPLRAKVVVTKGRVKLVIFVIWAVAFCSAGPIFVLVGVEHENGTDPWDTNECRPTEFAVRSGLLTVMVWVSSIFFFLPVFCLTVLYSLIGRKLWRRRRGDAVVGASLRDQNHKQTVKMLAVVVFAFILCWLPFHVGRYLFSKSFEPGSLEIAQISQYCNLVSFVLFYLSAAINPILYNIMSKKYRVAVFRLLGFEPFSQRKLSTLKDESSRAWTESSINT
Description: GHS-R competition binding assay (Ki of GHS-R antagonizing compounds). The protocol:
One exemplary binding assay is as follows: GHS-R expressing COS-7 cells cultured at a density of 1×10^5 cells per well so that binding is assayed in the range of about 5-8 % binding of the radioactive ligand. For example, the cells can express an endogenous nucleic acid encoding GHS-R or an exogenous nucleic acid encoding GHS-R. Cells transfected with an exogenous nucleic acid encoding GHS-R can be used, e.g., two days, after transfection. Competition binding experiments are performed for 3 hours at 4° C. using 25 pM of ^125I-ghrelin in 0.5 ml of 50 mM HEPES buffer, pH 7.4, supplemented with 1 mM CaCl2, 5 mM MgCl2, and 0.1% (w/v) bovine serum albumin, 40 mg/ml bacitracin. Non-specific binding can be determined as the binding in the presence of […] of unlabeled ghrelin. Cells are washed twice in 0.5 ml of ice-cold buffer and then lysed with 0.5-1 ml of lysis buffer (8 M Urea, 2% NP40 in 3 M acetic acid). After washing and lysis, the bound radioactivity is counted. Assays can be run in duplicate or triplicate, e.g., to provide statistical power.
Values of the dissociation and inhibition constants (Kd and Ki) can be estimated from competition binding experiments using the equation: Kd=IC50-L and Ki=IC50/(1+L/Kd), where L is the concentration of radioactive ligand. Bmax values can be estimated from competition binding experiments using the equation Bmax=B0 IC50/[ligand], where B0 is the specifically bound radioligand.
Consider `NC(=O)c1ccccc1-c1ccc(CNC(=O)[C@@H](COCc2ccccc2)NS(=O)(=O)CCCCl)cc1` [Compound 153, (R)-4′-{[3-Benzyloxy-2-(3-chloro-propane-1-sulfonylamino)-propionylamino]-methyl}-biphenyl-2-carboxylic acid amide], for which the Ki – broadly, the dissociation constant of the complex between target and ligand, obtained from inhibition or displacement – is over 1000 nM.
As for `CCN(CC)CCCS(=O)(=O)N[C@H](COCc1ccccc1)C(=O)NCc1ccc(-c2ccccc2C(N)=O)cc1` [Compound 154, (R)-4′-{[3-Benzyloxy-2-(3-diethylamino-propane-1-sulfonylamino)-propionylamino]-methyl}-biphenyl-2-carboxylic acid amide], the Ki fell in the range of 100 to 1000 nM.
Next, `CCN(CC)CCCS(=O)(=O)N[C@H](COCc1ccccc1)C(=O)NCc1ccc(-c2ccccc2-c2nnn(C(C)(C)C)n2)cc1` [Compound 155, (R)-3-Benzyloxy-N-[2′-(2-tert-butyl-2H-tetrazol-5-yl)-biphenyl-4-ylmethyl]-2-(3-diethylamino-propane-1-sulfonylamino)-propionamide]: 100 to 1000 nM; `CCN(CC)CCCS(=O)(=O)N[C@H](COCc1ccccc1)C(=O)NCc1ccc(-c2ccccc2-c2nn[nH]n2)cc1` [Compound 156, (R)-3-Benzyloxy-2-(3-diethylamino-propane-1-sulfonylamino)-N-[2′-(2H-tetrazol-5-yl)-biphenyl-4-ylmethyl]-propionamide]: 100 to 1000 nM; `CN([C@H](COCc1ccccc1)C(=O)N1CCC2(CC1)CN(S(C)(=O)=O)c1ccccc12)S(=O)(=O)CCCCl` [Compound 157, (R)-N-(3-(benzyloxy)-1-(1-(methylsulfonyl)spiro[indoline-3,4′-piperidine]-1′-yl)-1-oxopropan-2-yl)-3-chloro-N-methylpropane-1-sulfonamide]: 100 to 1000 nM.
The compound `CCN(CC)CCCS(=O)(=O)N[C@H](COCc1ccccc1)C(=O)NCc1ccc(-c2ccccc2C#N)cc1` [Compound 158, (R)-3-Benzyloxy-N-(2′-cyano-biphenyl-4-ylmethyl)-2-(3-diethylamino-propane-1-sulfonylamino)-propionamide] gave a Ki of under 100 nM.
Consider `COCCCS(=O)(=O)N[C@H](COCc1ccccc1)C(=O)N1CCC2(CC1)CN(S(C)(=O)=O)c1ccccc12` [Compound 159, (R)-N-(3-(benzyloxy)-1-(1-(methylsulfonyl)spiro[indoline-3,4′-piperidine]-1′-yl)-1-oxopropan-2-yl)-3-methoxypropane-1-sulfonamide], for which the Ki lay within 100 to 1000 nM.
The compound `CCN(CC)CCCS(=O)(=O)N(C)[C@H](COCc1ccccc1)C(=O)N1CCC2(CC1)CN(S(C)(=O)=O)c1ccccc12` [Compound 160, (R)-N-(3-(benzyloxy)-1-(1-(methylsulfonyl)spiro[indoline-3,4′-piperidine]-1′-yl)-1-oxopropan-2-yl)-3-(diethylamino)-N-methylpropane-1-sulfonamide] gave a Ki of under 100 nM.
Consider `CCN(CC)CCCS(=O)(=O)N[C@H](CCc1ccccc1)C(=O)NCc1ccc(-c2ccccc2-c2nn[nH]n2)cc1` [Compound 161, (R)-N-((2′-(2H-tetrazol-5-yl)biphenyl-4-yl)methyl)-2-(3-(diethylamino)propylsulfonamido)-4-phenylbutanamide], for which the Ki is 100 to 1000 nM.
`CCN(CC)CCCS(=O)(=O)N[C@H](COCc1ccccc1)C(=O)NCc1ccc(-c2ccccc2-c2noc(=S)[nH]2)cc1` [Compound 162, (R)-3-Benzyloxy-2-(3-diethylamino-propane-1-sulfonylamino)-N-[2′-(5-thioxo-4,5-dihydro-[1,2,4]oxadiazol-3-yl)-biphenyl-4-ylmethyl]-propionamide] returned a Ki of under 100 nM.
`CCN(CC)CCCS(=O)(=O)N[C@H](CCc1ccccc1)C(=O)N1CCC2(CC1)CN(S(C)(=O)=O)c1ccccc12` [Compound 163, (R)-3-(diethylamino)-N-(1-(1-(methylsulfonyl)spiro[indoline-3,4′-piperidine]-1′-yl)-1-oxo-4-phenylbutan-2-yl)propane-1-sulfonamide] yielded a Ki of under 100 nM.
Compound `CCN(CC)CCCS(=O)(=O)N[C@H](COCc1ccccc1)C(=O)NCc1ccc(-c2ccccc2-c2noc(=O)[nH]2)cc1` [Compound 164, (R)-3-Benzyloxy-2-(3-diethylamino-propane-1-sulfonylamino)-N-[2′-(5-oxo-4,5-dihydro-[1,2,4]oxadiazol-3-yl)-biphenyl-4-ylmethyl]-propionamide] gave a Ki of 100 to 1000 nM.
Compound `CCN(CC)CCCS(=O)(=O)N[C@H](COCc1ccccc1)C(=O)N1CCC2(C=Cc3ccccc32)CC1` [Compound 165, (R)-N-(3-(benzyloxy)-1-oxo-1-(spiro[indene-1,4′-piperidine]-1′-yl)propan-2-yl)-3-(diethylamino)propane-1-sulfonamide] returned a Ki of under 100 nM.
Take `CCN(CC)CCCS(=O)(=O)N[C@H](COCc1ccccc1)C(=O)c1ccc(-c2ccccc2NC(=O)OC(C)(C)C)cc1` [Compound 166, (R)-{4′-[3-Benzyloxy-2-(3-diethylamino-propane-1-sulfonylamino)-propionyl]-biphenyl-2-yl}-carbamic acid tert-butyl ester]: the Ki is over 1000 nM.
In the case of `CCN(CC)CCCS(=O)(=O)N[C@H](CCc1ccccc1)C(=O)c1ccc(-c2ccccc2NC(=O)OC(C)(C)C)cc1` [Compound 167, (R)-tert-butyl 4′-(2-(3-(diethylamino)propylsulfonamido)-4-phenylbutanoyl)biphenyl-2-ylcarbamate], the Ki was in the range of 100 to 1000 nM.
`CCN(CC)CCCS(=O)(=O)N[C@H](CCc1ccccc1)C(=O)c1ccc(-c2ccccc2CO)cc1` [Compound 168, (R)-3-(diethylamino)-N-(1-(2′-(hydroxymethyl)biphenyl-4-yl)-1-oxo-4-phenylbutan-2-yl)propane-1-sulfonamide]: the Ki is under 100 nM.
In turn, `CCN(CC)CCCS(=O)(=O)N[C@H](CCc1ccccc1)C(=O)c1ccc(-c2ccccc2N)cc1` [Compound 169] showed a Ki of under 100 nM.
Compound `CCN(CC)CCCS(=O)(=O)N[C@H](CCc1ccccc1)C(=O)NCc1ccc(-c2ccccc2CNC(C)=O)cc1` [Compound 170, (R)-N-((2′-(acetamidomethyl)biphenyl-4-yl)methyl)-2-(3-(diethylamino)propylsulfonamido)-4-phenylbutanamide] had an inhibition constant (Ki) of 100 to 1000 nM.
The figure for `CCN(CC)CCCS(=O)(=O)N[C@H](CCc1ccccc1)C(=O)c1ccc(-c2ccccc2NC(=O)NC)cc1` [Compound 171, (R)-3-(diethylamino)-N-(1-(2′-(3-methylureido)biphenyl-4-yl)-1-oxo-4-phenylbutan-2-yl)propane-1-sulfonamide] is 100 to 1000 nM; for `CCNC(=O)Nc1ccccc1-c1ccc(C(=O)[C@@H](CCc2ccccc2)NS(=O)(=O)CCCN(CC)CC)cc1` [Compound 172, (R)-3-(diethylamino)-N-(1-(2′-(3-ethylureido)biphenyl-4-yl)-1-oxo-4-phenylbutan-2-yl)propane-1-sulfonamide] it is 100 to 1000 nM.
As to `CCN(CC)CCCS(=O)(=O)N[C@H](CCc1ccccc1)C(=O)c1ccc(-c2ccccc2COC(=O)NC)cc1` [Compound 173, (R)-(4′-(2-(3-(diethylamino)propylsulfonamido)-4-phenylbutanoyl)biphenyl-2-yl)methyl methylcarbamate], the inhibitory constant (Ki) is under 100 nM.
